Earlier results as cited in US11439638B1, “Drug and diagnostic combination system to identify and treat single-stranded RNA viruses including coronaviruses” (priority 2021, dated 2022).

Columns and labels:
[1] = test system: influenza viruses, arenaviruses, bunyaviruses, and filoviruses
[2] = test system: SARS-CoV-2; settings: mammalian cells, in vitro
[3] = test system: dengue virus
[4] = test system: yellow fever virus

Compound | effectiveness against viruses [1] | replication of SARS-CoV-2 [2] | inhibition of dengue virus [3] | inhibition of yellow fever virus [4]
NC(=O)c1nc(F)c[nH]c1=O [Favipiravir, favipiravir] | effective | – | – | –
NC(=O)c1nc(F)cn([C@@H]2O[C@H](COP(=O)(O)OP(=O)(O)OP(=O)(O)O)[C@@H](O)[C@H]2O)c1=O [favipiravir-RTP] | effective | – | – | –
ivermectin | – | slow replication | inhibit | inhibit
